Source: patent US20060161001A1, “Substituted heterocyclic compounds and methods of use” (Amgen Inc., priority 2004, published 2006)

System: LPS induced TNF release
Experiment: THP1 cell assay (LPS induced TNF release)
Assay type: cell-based
Conditions: Homo sapiens, THP-1; THP1 cells, LPS induced TNF-α secretion, 3 h at 37° C.
Method: Lipopolysaccharide-Activated THP1 Cell TNF Production Assay
THP1 cells are resuspended in fresh THP1 media (RPMI 1640, 10% heat-inactivated FBS, 1XPGS, 1XNEAA, plus 30 μM OME) at a concentration of 1E6/mL. One hundred microliters of cells per well are plated in a polystyrene 96-well tissue culture. One microgram per mL of bacterial LPS is prepared in THP1 media and is transferred to the wells. Test compounds are dissolved in 100% DMSO and are serially diluted 3-fold in a polypropylene 96-well microtiter plate (drug plate). HI control and LO control wells contain only DMSO. One microliter of test compound from the drug plate followed by 10 μL of LPS are transferred to the cell plate. The treated cells are induced to synthesize and secrete TNF-α at 37° C. for 3 h. Forty microliters of conditioned media are transferred to a 96-well polypropylene plate containing 110 μL of ECL buffer (50 mM Tris-HCl pH 8.0, 100 mM NaCl, 0.05% Tween 20, 0.05% NaN3 and 1% FBS) supplemented with 0.44 nM MAB610 monoclonal Ab (R&D Systems), 0.34 nM ruthenylated AF210NA polyclonal Ab (R&D Systems) and 44 μg/mL sheep anti-mouse M280 Dynabeads (Dynal). After a 2 h incubation at RT with shaking, the reaction is read on the ECL M8 Instrument (IGEN Inc.). A low voltage is applied to the ruthenylated TNF-α immune complexes, which in the presence of TPA (the active component in Origlo), results in a cyclical redox reaction generating light at […]. The amount of secreted TNF-α in the presence of compound compared with that in the presence of DMSO vehicle alone (HI control) is calculated using the formula: % control (POC)=(cpd−average LO)/(average HI−average LO)*100. Data (consisting of POC and inhibitor concentration in μM) is fitted to a 4-parameter equation (y=A+((B−A)/(I+((x/C)ˆD))), where A is the minimum y (POC) value, B is the maximum y (POC), C is the x (cpd concentration) at the point of inflection and D is the slope factor) using a Levenburg-Marquardt non-linear regression algorithm.

| IC50 [µM] | Compound |
| --- | --- |
| ≤ 20 | c1ccc(CCNc2nccc(N3CCCc4cnc(-c5ccccc5)cc43)n2)cc1 [Example 3, N-Phenethyl-4-(7-phenyl-3,4-dihydro-1,6-naphthyridin-1(2H)-yl)pyrimidin-2-amine] |
| ≤ 20 | CC(Cc1cccc(CO)c1)Nc1nccc(N2CCCc3cnc(-c4ccccc4)cc32)n1 (stereo not shown) [Example 4, (3-(2-(4-(7-Phenyl-3,4-dihydro-1,6-naphthyridin-1(2H)-yl)pyrimidin-2-ylamino)-propyl)phenyl)methanol] |
| ≤ 20 | CC(Cc1cccc(CN)c1)Nc1nccc(N2CCCc3cnc(-c4ccccc4)cc32)n1 (stereo not shown) [Example 5, N-(1-(3-(Aminomethyl)phenyl)propan-2-yl)-4-(7-phenyl-3,4-dihydro-1,6-naphthyridin-1(2H)-yl)pyrimidin-2-amine] |
| ≤ 20 | CC(C)(C)OC(=O)N1CCC(Nc2nccc(N3CCCc4cnc(-c5ccccc5)cc43)n2)CC1 [Example 7, tert-Butyl 4-(4-(7-phenyl-3,4-dihydro-1,6-naphthyridin-1(2H)-yl)pyrimidin-2-ylamino)piperidine-1-carboxylate] |
| ≤ 20 | c1ccc(-c2cc3c(cn2)CCCN3c2ccnc(NC3CCNCC3)n2)cc1 [Example 8, 4-(7-Phenyl-3,4-dihydro-1,6-naphthyridin-1(2H)-yl)-N-(piperidin-4-yl)pyrimidin-2-amine] |
| ≤ 20 | CC(=O)N1CCC(Nc2nccc(N3CCCc4cnc(-c5ccccc5)cc43)n2)CC1 [Example 9, 1-(4-(4-(7-Phenyl-3,4-dihydro-1,6-naphthyridin-1(2H)-yl)pyrimidin-2-ylamino)-piperidin-1-yl)ethanone] |
| ≤ 20 | C[C@@H](Cc1cccc([C@@H](C)N)c1)Nc1nccc(N2CCCc3cnc(-c4ccccc4)cc32)n1 [Example 10, N-((S)-1-(3-((R)-1-Aminoethyl)phenyl)propan-2-yl)-4-(7-phenyl-3,4-dihydro-1,6-naphthyridin-1(2H)-yl)pyrimidin-2-amine] |
| ≤ 20 | CC(=O)c1cccc(C[C@H](C)Nc2nccc(N3CCCc4cnc(-c5ccccc5)cc43)n2)c1 [Example 12, (S)-1-(3-(2-(4-(7-Phenyl-3,4-dihydro-1,6-naphthyridin-1(2H)-yl)pyrimidin-2-yl-amino)propyl)phenyl)ethanone] |
| ≤ 20 | NCC(=O)N1CCC(Nc2nccc(N3CCCc4cnc(-c5ccccc5)cc43)n2)CC1 [Example 13, 2-Amino-1-(4(4-(7-phenyl-3,4-dihydro-1,6-naphthyridin-1(2H)-yl)pyrimidin-2-yl-amino)piperdin-1-yl)ethanone] |
| ≤ 20 | CC(C)NCCC(=O)N1CCC(Nc2nccc(N3CCCc4cnc(-c5ccccc5)cc43)n2)CC1 [Example 14, 3-(Isopropylamino)-1-(4(4-(7-phenyl-3,4-dihydro-1,6-naphthyridin-1(2H)-yl)pyrimidin-2-ylamino)piperdin-1-yl)propan-1-one] |
| ≤ 20 | CNCCC(=O)N1CCC(Nc2nccc(N3CCCc4cnc(-c5ccccc5)cc43)n2)CC1 [Example 15, 3-(Methylamino)-1-(4(4-(7-phenyl-3,4-dihydro-1,6-naphthyridin-1(2H)-yl)-pyrimidin-2-ylamino)piperdin-1-yl)propan-1-one] |
| ≤ 20 | CCNCCC(=O)N1CCC(Nc2nccc(N3CCCc4cnc(-c5ccccc5)cc43)n2)CC1 [Example 16, 3-(Ethylamino)-1-(4(4-(7-phenyl-3,4-dihydro-1,6-naphthyridin-1(2H)-yl)pyrimidin-2-ylamino)piperdin-1-yl)propan-1-one] |
| ≤ 20 | COC(=O)[C@@H](Cc1ccccc1)Nc1nccc(N2CCCc3cnc(-c4ccccc4)cc32)n1 [Example 17, (R)-Methyl-3-phenyl-2-(4-(7-phenyl-3,4-dihydro-1,6-naphthyridin-1(2H)-yl)-pyrimidin-2-ylamino)propanoate] |
| ≤ 20 | O=C(O)[C@@H](Cc1ccccc1)Nc1nccc(N2CCCc3cnc(-c4ccccc4)cc32)n1 [Example 18, (R)-3-Phenyl-2-(4-(7-phenyl-3,4-dihydro-1,6-naphthyridin-1(2H)-yl)pyrimidin-2-ylamino)propanoic acid] |
| ≤ 20 | O=C(O)C[C@@H](Cc1ccccc1)Nc1nccc(N2CCCc3cnc(-c4ccccc4)cc32)n1 [Example 19, (R)-4-Phenyl-3-(4-(7-phenyl-3,4-dihydro-1,6-naphthyridin-1(2H)-yl)pyrimidin-2-ylamino)butanoic acid] |
| ≤ 20 | O=C(C[C@@H](Cc1ccccc1)Nc1nccc(N2CCCc3cnc(-c4ccccc4)cc32)n1)N1CCOCC1 [Example 20, (R)-1-Morpholino-4-phenyl-3-(4-(7-phenyl-3,4-dihydro-1,6-naphthyridin-1(2H)-yl)pyrimidin-2-ylamino)butan-1-one] |

| IC50 [µM] | Compound |
| --- | --- |
| ≤ 20 | O=C(C[C@@H](Cc1ccccc1)Nc1nccc(N2CCCc3cnc(-c4ccccc4)cc32)n1)NC1CC1 [Example 21, (R)-N-Cyclopropyl-4-phenyl-3-(4-(7-phenyl-3,4-dihydro-1,6-naphthyridin-1(2H)-yl)pyrimidin-2-ylamino)butanamide] |
| ≤ 20 | O=C(C[C@@H](Cc1ccccc1)Nc1nccc(N2CCCc3cnc(-c4ccccc4)cc32)n1)N1CCNCC1 [Example 22, (R)-4-Phenyl-3-(4-(7-phenyl-3,4-dihydro-1,6-naphthyridin-1(2H)-yl)pyrimidin-2-ylamino)-1-(piperazin-1yl)butan-1-one] |
| ≤ 20 | CC(C)(C)OC(=O)N1CCC(Nc2ncc(F)c(N3CCCc4cnc(-c5ccccc5)cc43)n2)CC1 [Example 24] |
| ≤ 20 | Fc1cnc(NC2CCNCC2)nc1N1CCCc2cnc(-c3ccccc3)cc21 [Example 25, 5-Fluoro-4-(7-phenyl-3,4-dihydro-1,6-naphthyridin-1(2H)-yl)-N-(piperidin-4-yl)pyrimidin-2-amine] |
| ≤ 20 | CC(=O)N1CCC(Nc2ncc(F)c(N3CCCc4cnc(-c5ccccc5)cc43)n2)CC1 [Example 26, 1-(4-(5-Fluoro-4-(7-phenyl-3,4-dihydro-1,6-naphthyridin-1(2H)-yl)pyrimidin-2-yl-amino)piperidin-1-yl)ethanone] |
| ≤ 20 | C[C@@H](Cc1cccc(C(C)(C)N)c1)Nc1nccc(N2CCCc3ncc(-c4ccccc4)cc32)n1 [Example 29, (S)-N-(1-(3-(2-Aminopropan-2-yl)phenyl)propan-2-yl)-4-(7-phenyl-3,4-dihydro-1,5-naphthyridin-1(2H)-yl)pyrimidin-2-amine] |
| ≤ 20 | CC(C)(C)OC(=O)N1CCC(Nc2nccc(N3CCCc4ncc(-c5ccccc5)cc43)n2)CC1 [Example 30, tert-Butyl-4(7-phenyl-3,4-dihydro-1,5-naphthylridin-1(2H)-pyrimidin-2-ylamino)-piperidine-1-carboxylate] |
| ≤ 20 | c1ccc(-c2cnc3c(c2)N(c2ccnc(NC4CCNCC4)n2)CCC3)cc1 [Example 31, 4-(7-Phenyl-3,4-dihydro-1,5-naphthyridin-1(2H)-yl)-N-(piperidin-4-yl)pyrimidin-2-amine] |
| ≤ 20 | CC(=O)N1CCC(Nc2nccc(N3CCCc4ncc(-c5ccccc5)cc43)n2)CC1 [Example 32, 1-(4-(4-(7-Phenyl-3,4-dihydro-1,5-naphthyridin-1(2H)-yl)pyrimidin-2-ylamino)-piperidin-1-yl)ethanone] |
| ≤ 20 | NC(=O)[C@@H](Cc1ccccc1)Nc1nccc(N2CCCc3cnc(-c4ccccc4)cc32)n1 [Example 33, (R)-3-Phenyl-2-(4-(7-phenyl-3,4-dihydro-1,6-naphthyridin-1(2H)-yl)pyrimidin-2-ylamino)propanamide] |
| ≤ 20 | NC1CCC(Nc2nccc(N3CCCc4cnc(-c5ccccc5)cc43)n2)CC1 [Example 34, (1R,4R)-N^1-(4-(7-Phenyl-3,4-dihydro-1,6-naphthyridin-1(2H)-yl)pyrimidin-2-yl)cyclohexane-1,4-diamine] |
| ≤ 20 | CC(=O)NC1CCC(Nc2nccc(N3CCCc4cnc(-c5ccccc5)cc43)n2)CC1 [Example 35, N-((1R,4R)-4-(4-(7-Phenyl-3,4-dihydro-1,6-naphthyridin-1(2H)-yl)pyrimidin-2-ylamino)cyclohexyl)acetamide] |
| ≤ 20 | O=C(CC(F)(F)F)NC1CCC(Nc2nccc(N3CCCc4cnc(-c5ccccc5)cc43)n2)CC1 [Example 36, 3,3,3-Trifluoro-N-((1R,4R)-4-(4-(7-phenyl-3,4-dihydro-1,6-naphthyridin-1(2H)-yl)-pyrimidin-2-ylamino)cyclohexyl)propanamide] |
| ≤ 20 | CC(C)NC1CCC(Nc2nccc(N3CCCc4cnc(-c5ccccc5)cc43)n2)CC1 [Example 37, (1R,4R)-N^1-Isopropyl-N^4-(4-(7-phenyl-3,4-dihydro-1,6-naphthyridin-1(2H)-yl)-pyrimidin-2-yl)cyclohexane-1,4-diamine] |
| ≤ 20 | C[C@@H](Cc1cccc(CN)c1)Nc1nccc(N2CCCc3cnc(-c4ccccc4)cc32)n1 [Example 38] |
